Measurements as given in PubChem BioAssay (NCI).
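How tested: cells in 96-well plates exposed to compound for 48 hours at five concentrations. GI50 marks 50% less growth. TGI denotes the concentration required for complete inhibition of growth.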

Assays:
Experiment in all cases: DTP human tumour cell line panel, 48 h
[1] = test system: 786-0 renal
[2] = test system: A498 renal
[3] = test system: A549 NSCLC
[4] = test system: ACHN renal
[5] = test system: BT-549 breast
[6] = test system: CAKI-1 renal
[7] = test system: CCRF-CEM leukemia
[8] = test system: COLO 205 colon
[9] = test system: DU-145 prostate
[10] = test system: EKVX NSCLC
[11] = test system: HCC-2998 colon
[12] = test system: HCT-116 colon
[13] = test system: HCT-15 colon
[14] = test system: HL-60(TB) leukemia
[15] = test system: HOP-62 NSCLC
[16] = test system: HOP-92 NSCLC
[17] = test system: HS 578T breast
[18] = test system: HT29 colon
[19] = test system: IGROV1 ovarian
[20] = test system: K-562 leukemia
[21] = test system: KM12 colon
[22] = test system: LOX IMVI melanoma
[23] = test system: MALME-3M melanoma
[24] = test system: MCF7 breast
[25] = test system: MDA-MB-231 breast
[26] = test system: MDA-MB-435
[27] = test system: MOLT-4 leukemia
[28] = test system: NCI-H23 lung
[29] = test system: NCI-H460 lung
[30] = test system: NCI-H522 lung
[31] = test system: NCI/ADR-RES ovarian
[32] = test system: OVCAR-3 ovarian
[33] = test system: OVCAR-4 ovarian
[34] = test system: OVCAR-5 ovarian
[35] = test system: OVCAR-8 ovarian
[36] = test system: PC-3 prostate
[37] = test system: RPMI-8226 leukemia
[38] = test system: RXF 393 renal
[39] = test system: SF-268 CNS
[40] = test system: SF-295 CNS
[41] = test system: SF-539 CNS
[42] = test system: SK-MEL-2 melanoma
[43] = test system: SK-MEL-28 melanoma
[44] = test system: SK-MEL-5 melanoma
[45] = test system: SK-OV-3 ovarian
[46] = test system: SN12C renal
[47] = test system: SNB-19 CNS
[48] = test system: SNB-75 CNS
[49] = test system: SR leukemia
[50] = test system: SW-620 colon
[51] = test system: T-47D breast
[52] = test system: TK-10 renal
[53] = test system: U251 CNS
[54] = test system: UACC-257 melanoma
[55] = test system: UACC-62 melanoma
[56] = test system: UO-31 renal
[57] = test system: M14 melanoma
[58] = test system: NCI-H226 lung

`O=C(OCc1nc2nc(Cl)nc(N3CCOCC3)c2[nH]1)n1ccnc1` gave a GI50 [1] of 1840 nM, a TGI [1] of 3.98 µM and a GI50 [2] of 2900 nM. For the same compound, the TGI [2] was 9.83 µM, the GI50 [3] was 3.24 µM and the TGI [3] was 12.9 µM. The GI50 [4] was 1120 nM, the TGI [4] was 2.32 µM and the GI50 [5] was 2490 nM. For the same compound, the TGI [5] was 9.49 µM, the GI50 [6] was 1210 nM and the TGI [6] was 2.84 µM. The GI50 [7] was 1170 nM, the TGI [7] was 6.92 µM and the GI50 [8] was 1650 nM. For the same compound, the TGI [8] was 3.84 µM, the GI50 [9] was 1590 nM and the TGI [9] was 3.18 µM. It also gave a GI50 [10] of 2040 nM, a TGI [10] of 4.66 µM and a GI50 [11] of 2220 nM. It also gave a TGI [11] of 4.16 µM, a GI50 [12] of 650 nM and a TGI [12] of 3.29 µM. It also gave a GI50 [13] of 2060 nM, a TGI [13] of 6.45 µM and a GI50 [14] of 1510 nM. For the same compound, the TGI [14] was 4.55 µM, the GI50 [15] was 1640 nM and the TGI [15] was 4.78 µM. The GI50 [16] was 1170 nM, the TGI [16] was 3.15 µM and the GI50 [17] was 1960 nM. For the same compound, the TGI [17] was 5.37 µM, the GI50 [18] was 1590 nM and the TGI [18] was 4.33 µM. It also gave a GI50 [19] of 1320 nM, a TGI [19] of 2.64 µM and a GI50 [20] of 1680 nM. For the same compound, the TGI [20] was 8.1 µM, the GI50 [21] was 1880 nM and the TGI [21] was 4.72 µM. The GI50 [22] was 720 nM, the TGI [22] was 2.17 µM and the GI50 [23] was 1720 nM. For the same compound, the TGI [23] was 3.22 µM, the GI50 [24] was 1840 nM and the TGI [24] was 4.91 µM. It also gave a GI50 [25] of 1630 nM, a TGI [25] of 3.38 µM and a GI50 [26] of 1320 nM. It also gave a TGI [26] of 2.75 µM, a GI50 [27] of 2290 nM and a TGI [27] of 6.47 µM. For the same compound, the GI50 [28] was 2410 nM, the TGI [28] was 5.69 µM and the GI50 [29] was 1860 nM. The TGI [29] was 4.02 µM, the GI50 [30] was 1710 nM and the TGI [30] was 4.38 µM. The GI50 [31] was 2570 nM, the TGI [31] was 8.84 µM and the GI50 [32] was 1290 nM. The TGI [32] was 2.79 µM, the GI50 [33] was 1630 nM and the TGI [33] was 3.38 µM. It also gave a GI50 [34] of 1520 nM, a TGI [34] of 3.07 µM and a GI50 [35] of 2560 nM. It also gave a TGI [35] of 11 µM, a GI50 [36] of 1690 nM and a TGI [36] of 3.65 µM. It also gave a GI50 [37] of 582 nM, a TGI [37] of 3.32 µM and a GI50 [38] of 1610 nM. The TGI [38] was 3.06 µM, the GI50 [39] was 1740 nM and the TGI [39] was 3.6 µM. It also gave a GI50 [40] of 10.5 µM, a TGI [40] of 22.2 µM and a GI50 [41] of 1480 nM. For the same compound, the TGI [41] was 2.82 µM, the GI50 [42] was 1950 nM and the TGI [42] was 4.51 µM. It also gave a GI50 [43] of 1740 nM, a TGI [43] of 3.24 µM and a GI50 [44] of 1830 nM. It also gave a TGI [44] of 3.35 µM, a GI50 [45] of 3.4 µM and a TGI [45] of 14.3 µM. For the same compound, the GI50 [46] was 1380 nM, the TGI [46] was 2.76 µM and the GI50 [47] was 2420 nM. For the same compound, the TGI [47] was 6.46 µM, the GI50 [48] was 1040 nM and the TGI [48] was 3.49 µM. It also gave a GI50 [49] of 1090 nM, a TGI [49] of 5.09 µM and a GI50 [50] of 1500 nM. The TGI [50] was 3.32 µM, the GI50 [51] was 1880 nM and the TGI [51] was 4.48 µM. The GI50 [52] was 1940 nM, the TGI [52] was 4.05 µM and the GI50 [53] was 1960 nM. The TGI [53] was 4.32 µM, the GI50 [54] was 1900 nM and the TGI [54] was 3.94 µM. It also gave a GI50 [55] of 1550 nM, a TGI [55] of 2.94 µM and a GI50 [56] of 1190 nM. The TGI [56] was 2.42 µM.

With `COc1ccc(C2=C(Cl)C(=O)N(c3ccc(OC)cc3OC)C(=O)C2(Cl)Cl)cc1` the TGI [1] was 29 µM, the TGI [3] was > 100 µM and the TGI [4] was 29.1 µM. The TGI [5] was 77.3 µM, the TGI [6] was 25.2 µM and the TGI [8] was 39.4 µM. For the same compound, the TGI [9] was 31 µM, the TGI [10] was 87.1 µM and the TGI [12] was 28.9 µM. It also gave a TGI [13] of 27.9 µM, a TGI [14] of 69.8 µM and a TGI [15] of 36.9 µM. The TGI [16] was 36.6 µM, the TGI [17] was 16.4 µM and the TGI [18] was 38.4 µM. The TGI [19] was 44.3 µM, the TGI [20] was > 100 µM and the TGI [21] was 33.6 µM. For the same compound, the TGI [22] was 30.8 µM, the TGI [57] was 29.7 µM and the TGI [23] was 35.8 µM. It also gave a TGI [24] of 64.7 µM, a TGI [25] of 20.5 µM and a TGI [26] of 34.4 µM. The TGI [27] was 74 µM, the TGI [58] was 27.1 µM and the TGI [28] was 31 µM. For the same compound, the TGI [29] was > 100 µM, the TGI [30] was 36.5 µM and the TGI [31] was 41.9 µM. The TGI [32] was 25 µM, the TGI [33] was 32.2 µM and the TGI [34] was 27.6 µM. For the same compound, the TGI [35] was 52.4 µM, the TGI [36] was 33.5 µM and the TGI [38] was 57 µM. The TGI [39] was 65.9 µM, the TGI [40] was 66.4 µM and the TGI [41] was 23.5 µM. It also gave a TGI [42] of 63.6 µM, a TGI [43] of 36.1 µM and a TGI [44] of 28.1 µM. The TGI [45] was > 100 µM, the TGI [46] was 13.8 µM and the TGI [47] was > 100 µM. For the same compound, the TGI [48] was 90.3 µM, the TGI [49] was 36.4 µM and the TGI [50] was 30.1 µM. For the same compound, the TGI [51] was 30.3 µM, the TGI [52] was 37.7 µM and the TGI [53] was 30.2 µM. The TGI [54] was 39.3 µM, the TGI [55] was 28 µM and the TGI [56] was 37.4 µM.
